Experimental data reported in BindingDB's records for doi:10.1021/ja0466154 (Weizmann Institute of Science, 2004).

Columns and labels:
Acetylcholinesterase [1] = molecular target: Acetylcholinesterase (Tetronarce californica, UniProt P04058); test: Enzyme Inhibition Assay; details: pH 8; 22 °C
Experimental: (§1) The cholinesterase assays were performed using colorimetric method reported by Ellman. […] Each inhibitor was evaluated at several concentrations in the range from 1 nM to 20 uM.

Acetylcholinesterase [2] = molecular target: Acetylcholinesterase (Electrophorus electricus, UniProt O42275); test: Enzyme Inhibition Assay; details: pH 8; 22 °C
Experimental: as §1

Sequence of Acetylcholinesterase (Tetronarce californica, UniProt P04058) (P04058 whole entry): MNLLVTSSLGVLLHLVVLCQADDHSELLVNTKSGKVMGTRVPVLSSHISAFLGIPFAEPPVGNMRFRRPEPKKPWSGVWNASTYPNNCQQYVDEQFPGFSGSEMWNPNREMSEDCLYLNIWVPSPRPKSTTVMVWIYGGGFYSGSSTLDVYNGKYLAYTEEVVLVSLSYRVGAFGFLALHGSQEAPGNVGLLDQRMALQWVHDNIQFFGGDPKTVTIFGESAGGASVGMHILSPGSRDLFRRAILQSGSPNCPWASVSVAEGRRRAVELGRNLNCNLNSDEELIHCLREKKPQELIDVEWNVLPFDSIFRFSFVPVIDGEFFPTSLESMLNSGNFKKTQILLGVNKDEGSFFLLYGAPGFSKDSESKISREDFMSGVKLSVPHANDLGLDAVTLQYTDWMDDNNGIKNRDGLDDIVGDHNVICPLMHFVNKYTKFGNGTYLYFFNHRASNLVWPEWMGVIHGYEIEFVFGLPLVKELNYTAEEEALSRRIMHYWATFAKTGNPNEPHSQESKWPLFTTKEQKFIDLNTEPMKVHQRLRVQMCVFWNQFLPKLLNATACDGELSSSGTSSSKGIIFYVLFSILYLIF
Sequence of Acetylcholinesterase (Electrophorus electricus, UniProt O42275) (O42275 whole entry): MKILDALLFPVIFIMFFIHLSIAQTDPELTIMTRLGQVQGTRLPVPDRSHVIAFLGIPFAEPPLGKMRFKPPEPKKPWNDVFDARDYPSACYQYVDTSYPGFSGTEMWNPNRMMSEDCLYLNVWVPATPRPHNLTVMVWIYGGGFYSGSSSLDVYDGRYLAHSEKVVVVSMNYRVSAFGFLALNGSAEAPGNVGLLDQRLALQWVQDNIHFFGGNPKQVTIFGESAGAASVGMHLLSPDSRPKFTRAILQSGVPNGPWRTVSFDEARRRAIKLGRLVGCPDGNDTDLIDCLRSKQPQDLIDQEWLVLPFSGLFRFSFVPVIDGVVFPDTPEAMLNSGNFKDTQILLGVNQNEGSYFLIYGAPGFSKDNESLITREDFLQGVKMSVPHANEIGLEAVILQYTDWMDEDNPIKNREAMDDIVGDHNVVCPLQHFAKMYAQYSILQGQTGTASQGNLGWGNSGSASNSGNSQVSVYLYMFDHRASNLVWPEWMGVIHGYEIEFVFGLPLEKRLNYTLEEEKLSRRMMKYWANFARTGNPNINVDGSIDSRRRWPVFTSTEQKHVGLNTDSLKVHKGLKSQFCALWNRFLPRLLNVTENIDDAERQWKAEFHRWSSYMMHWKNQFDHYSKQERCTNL

## COc1ccc2c3c1O[C@H]1C[C@@H](O)C=C[C@@]31CC[N+](CCCCCCCCN1C(=O)c3ccccc3C1=O)=C2 [(1S,12S,14R)-4-[8-(1,3-dioxo-2,3-dihydro-1H-isoindol-2-yl)octyl]-14-hydroxy-9-methoxy-11-oxa-4-azatetracyclo[8.6.1.0^{1,12}.0^{6,17}]heptadeca-4,6,8,10(17),15-pentaen-4-ium]
Acetylcholinesterase [1]
  IC50: 4 nM

## C[N+]1=Cc2ccc(OCCCCCCCCN3C(=O)c4ccccc4C3=O)c3c2[C@@]2(C=C[C@H](O)C[C@@H]2O3)CC1 [(1S,12S,14R)-9-{[8-(1,3-dioxo-2,3-dihydro-1H-isoindol-2-yl)octyl]oxy}-14-hydroxy-4-methyl-11-oxa-4-azatetracyclo[8.6.1.0^{1,12}.0^{6,17}]heptadeca-4,6,8,10(17),15-pentaen-4-ium]
Acetylcholinesterase [2]
  IC50: 203 nM
Acetylcholinesterase [1]
  IC50: 499 nM

## COc1ccc2c3c1O[C@H]1C[C@@H](O)C=C[C@@]31CCN(CCCCCCCCN1C(=O)c3ccccc3C1=O)C2 [galanthamine deriv. 3d]
Acetylcholinesterase [2]
  IC50: 72 nM
Acetylcholinesterase [1]
  IC50: 38 nM

## COc1ccc2c3c1O[C@H]1C[C@@H](O)C=C[C@@]31CC[N+](C)=C2 [galanthamine deriv. 14]
Acetylcholinesterase [2]
  IC50: 266 nM
Acetylcholinesterase [1]
  IC50: 702 nM
